Source: PubChem BioAssay AID2749 (The Scripps Research Institute Molecular Screening Center, 2010)
The source made the active and inactive calls. How the calls were made is not given here.

Test system: IEC-6 rat intestinal epithelial cells, cytotoxicity, luminescence
Test: rat intestinal epithelial cell viability loss – luminescence, dose response, cytotoxicity control for KLF5 inhibitor project, late-stage follow-up (AID 2749)

Compound | IC50
CC(C)(C)c1ccc(-c2noc(CCC(=O)Nc3cccnc3)n2)cc1 | > 39.8 µM (inactive)
O=C(NCCc1ccccc1F)c1ccc2c(c1)OCCO2 | > 39.8 µM (inactive)
Cc1ccc2nc(NC(=O)CCCc3nc4ccccc4s3)sc2c1 | > 39.8 µM (inactive)
CCOC(=O)c1sc(NC(=O)c2cc3ccccc3o2)nc1C | > 39.8 µM (inactive)
CC(C)(C)c1ccc(C(=O)O/N=C(\N)c2ccccn2)cc1 | 25.5 µM (inactive)
CCCc1ccc(C(=O)O/N=C(\N)c2ccccn2)cc1 | > 39.8 µM (inactive)
CN(C(=O)COC(=O)/C=C/c1cccc([N+](=O)[O-])c1)C1CCS(=O)(=O)C1 (centres undefined) | 34.8 µM (inactive)
c1ccc(-c2ccc(-c3nc(-c4ccccn4)no3)cc2)cc1 | 14.2 µM (inactive)
CN1CCN(c2ccc(-c3ccc4ccccc4n3)cc2)CC1 | 16.2 µM (inactive)
CCOC(=O)c1sc(NC(=O)c2ccc3ncsc3c2)nc1C | > 39.8 µM (inactive)
Cc1cc(C(=O)CN2C(=O)c3ccccc3S2(=O)=O)c(C)n1CC1CCCO1 (centres undefined) | > 39.8 µM (inactive)
COc1ccc(C(=O)Nc2ccccc2C(=O)NN=Cc2ccc(O)c(OC)c2)cc1 | > 39.8 µM (inactive)
O=C(NCCc1ccccc1)c1ccc2c(c1)OCCCO2 | > 39.8 µM (inactive)
COC(=O)c1ccc2nc(Nc3nc4ccc(F)cc4s3)sc2c1 | > 39.8 µM (inactive)
COc1cccc(C=NNc2ccc(C(=O)O)cc2)c1O | > 39.8 µM (inactive)
CC(C)(C)C(=O)Nc1cc2nn(-c3ccccc3)nc2cc1Cl | > 39.8 µM (inactive)
CCCc1ccc(-c2ccc(/C=C/C(=O)O)cc2)nc1 | > 39.8 µM (inactive)
CCOC(=O)c1sc(NC(=O)c2cc3c(s2)CCC(C)C3)nc1C (centres undefined) | > 39.8 µM (inactive)
COc1ccc(OCc2cccc(C(=O)Nn3cc([N+](=O)[O-])cn3)c2)cc1 | > 39.8 µM (inactive)
